Read-outs that look alike come from different tables or passages of the source. Ends that are not written are not given here.
What was measured:
[1] = system: B054 cells (baboon smooth muscle cells); test: cells; format: cell-based; conditions: Papio anubis, read-out: minimum effective dose (MED), protein synthesis assay
[2] = system: B054 cells (baboon smooth muscle cells); test: cells; format: cell-based; conditions: for minimal effective concentration: Papio anubis
[3] = system: Vascular smooth muscle cells
[4] = system: Quiescent EX cells; test: Stimulation of DNA synthesis by mitogens in quiescent EX cells; format: cell-based, human; conditions: [3H]thymidine 16-32 h after stimulation, vs serum-free control; 20% FCS, IGF-1 25 ng/ml, EGF and bFGF 100 ng/ml, TGF-beta 10 ng/ml, AII and ET-1 100 nM
Procedure: Quiescent EX cells were then exposed to various mitogens, and stimulation of DNA synthesis was determined by incorporation of [^3H]thymidine 16-32 h after stimulation. DNA synthesis was stimulated by 20% FCS by 8.0±1.5 fold, compared to control cells that remained in serum-free D-MEM throughout. PDGF-BB and PDGF-AA caused a ≈ 3.0 fold stimulation of DNA synthesis. Insulin-like growth factor (IGF-1; 25 ng/ml) provided a 1.2 fold stimulation.

[5] = system: Quiescent ED cells; test: Stimulation of DNA synthesis by mitogens in quiescent ED cells; format: cell-based, human; conditions: [3H]thymidine 16-40 h after stimulation, vs serum-free control; 20% FCS
Procedure: Quiescent ED cells were exposed to various mitogens, and stimulation of DNA synthesis was determined by [^3H]thymidine incorporation 16-40 h after stimulation. DNA synthesis was stimulated by 20% FCS by 25±6 fold, compared to control cells that remained in serum-free D-MEM throughout. PDGF-BB stimulated ≈3.0 fold, but PDGF-AA stimulated only 2.0 fold.

Compound: CN[C@@H]1C[C@H]2O[C@@](C)([C@@H]1OC)n1c3ccccc3c3c4c(c5c6ccccc6n2c5c31)C(=O)NC4 [staurosporin]
- minimal effective concentration ([1]; 5 min): 0.1 µg/mL
- minimal effective concentration ([1]; 24 h): 0.01 µg/mL
- minimal effective concentration ([2]; 5 min, read-out: minimum effective dose (MED), DNA assay): 0.001 µg/mL
- minimal effective concentration ([2]; 24 h, read-out: minimum effective dose (MED), DNA synthesis assay): 0.001 µg/mL
- cytotoxicity grade [3]: 2

Compound: CC(=O)O[C@@H]1/C=C\[C@@](C)(O)C(=O)[C@@H](C)C/C=C\[C@H]2[C@H](O)C(C)=C(C)[C@H]3C(Cc4ccccc4)NC(=O)[C@]132 (stereo partly shown) [cytochalasin C]
- minimum effective dose (MED), DNA synthesis assay [2]: 0.01 µg/mL

Compound: endothelin-1 (CSCSSLMDKECVYFCHLDIIW; ends and bridges not checked; cysteine pairing not given here; UniProt P05305 53-73, looked up) [ET-1]
- stimulation of DNA synthesis [4]: did not significantly stimulate DNA synthesis
- stimulation of DNA synthesis [5]: did not stimulate DNA synthesis

Compound: CC[C@H](C)[C@H](NC(=O)[C@H](Cc1ccc(O)cc1)NC(=O)[C@@H](NC(=O)[C@H](CCCNC(=N)N)NC(=O)[C@@H](N)CC(=O)O)C(C)C)C(=O)N[C@@H](Cc1cnc[nH]1)C(=O)N1CCC[C@H]1C(=O)N[C@@H](Cc1ccccc1)C(=O)O [AII, angiotensin II]
- stimulation of DNA synthesis [4]: did not significantly stimulate DNA synthesis
- stimulation of DNA synthesis [5]: did not stimulate DNA synthesis

Source: patent EP1510220B1 (priority 1993, dated 1994)
